Results reported in US11254652B2, “Crystalline forms of N-(4-(4-(cyclopropymethyl)piperazine-1-carbonyl)phenyl)quinoline-8-sulfonamide” (Agios Pharmaceuticals, Inc., priority 2017, dated 2022).
Like-named read-outs stand apart in the source and are kept apart here.

Experiment: Solubility measurements by gravimetric method in solvents at 23° C. and 50° C.
Type: physicochemical
Details: for solubility at 2 days: organic solvent or mixture, thermodynamic from solid, read-out: Solubility
Method: Solubility measurements were done by gravimetric method in 20 different solvents at two temperatures (23° C. and 50° C.). About 20-30 mg of Form A, the synthesis of which is described below, was weighed and 0.75 mL solvent was added to form a slurry. The slurry was then stirred for two days at the specified temperature. The vial was centrifuged and the supernatant was collected for solubility measurement through gravimetric method. The saturated supernatant was transferred into pre-weighed 2 mL HPLC vials and weighed again (vial+liquid). The uncapped vial was then left on a 50° C. hot plate to slowly evaporate the solvent overnight. The vials were then left in the oven at 50° C. and under vacuum to remove the residual solvent so that only the dissolved solid remained. The vial was then weighed (vial+solid). From these three weights; vial, vial+liquid and vial+solid; the weight of dissolved solid and the solvent were calculated. Then using solvent density the solubility was calculated as mg solid/mL of solvent.
20-30 mg of Form A was weighed into 2 mL vial and 500 μL MeOH solvent system as outlined in the table was added. If dissolved, more solids were added to form the slurry. The slurries were then stirred for two days. The vials were centrifuged and the supernatant was collected for solubility measurement through gravimetric method by evaporation at 50° C. XRPD analysis was conducted on the solid after filtration of the slurries.
For the sake of comparison, the solubility of Compound 1, i.e., the non-crystalline freebase, was also measured in two solvent systems to see the effect of water.

O=C(c1ccc(NS(=O)(=O)c2cccc3cccnc23)cc1)N1CCN(CC2CC2)CC1 [Form A, 1-(cyclopropylmethyl)-4-(4-(quinoline-8-sulfonamido)benzoyl)piperazin-1-ium hemisulfate sesquihydrate]
solubility at 2 days (DCM, 23 °C, DCM, 23° C.): 2000 µg/mL
Solubility (EtOAc, 23° C.): 0 mg solid/mL solvent
solubility at 2 days (EtOAc, 50 °C, EtOAc, 50° C.): 2000 µg/mL
solubility at 2 days (EtOAc:MeOH (1:1) and 5 vol % water, 23 °C, EtOAc:MeOH (1:1) and 5 vol % water, 23° C.): 3000 µg/mL
solubility at 2 days (EtOAc:MeOH (1:1) and 5 vol % water, 50 °C, EtOAc:MeOH (1:1) and 5 vol % water, 50° C.): 12000 µg/mL
solubility at 2 days (EtOAc:MeOH (1:1), 23 °C, EtOAc:MeOH (1:1), 23° C.): 21000 µg/mL
solubility at 2 days (EtOAc:MeOH (1:1), 50 °C, EtOAc:MeOH (1:1), 50° C.): 240000 µg/mL
solubility at 2 days (EtOAc:MeOH (1:9), 23 °C, EtOAc:MeOH (1:9), 23° C.): 359000 µg/mL
solubility at 2 days (EtOAc:MeOH (1:9), 50 °C, EtOAc:MeOH (1:9), 50° C.): 531000 µg/mL
Solubility (EtOAc:MeOH (9:1), 23° C.): 0 mg solid/mL solvent
solubility at 2 days (EtOAc:MeOH (9:1), 50 °C, EtOAc:MeOH (9:1), 50° C.): 9000 µg/mL
Solubility (EtOH, 23° C.): 0 mg solid/mL solvent
solubility at 2 days (EtOH, 50 °C, EtOH, 50° C.): 1000 µg/mL
solubility at 2 days (EtOH:MeOH (1:1), 23 °C, EtOH:MeOH (1:1), 23° C.): 2000 µg/mL
solubility at 2 days (EtOH:MeOH (1:1), 50 °C, EtOH:MeOH (1:1), 50° C.): 11000 µg/mL
Solubility (IPA, 23° C.): 0 mg solid/mL solvent
solubility at 2 days (IPA, 50 °C, IPA, 50° C.): 2000 µg/mL
solubility at 2 days (IPA:DMSO (8:2), 23 °C, IPA:DMSO (8:2), 23° C.): 11000 µg/mL
solubility at 2 days (IPA:DMSO (8:2), 50 °C, IPA:DMSO (8:2), 50° C.): 28000 µg/mL
solubility at 2 days (IPA:DMSO:water (70:20:10), 23 °C, IPA:DMSO:water (70:20:10), 23° C.): 1000 µg/mL
solubility at 2 days (IPA:DMSO:water (70:20:10), 50 °C, IPA:DMSO:water (70:20:10), 50° C.): 8000 µg/mL
solubility at 2 days (IPA:DMSO:water (70:25:5), 23 °C, IPA:DMSO:water (70:25:5), 23° C.): 2000 µg/mL
solubility at 2 days (IPA:DMSO:water (70:25:5), 50 °C, IPA:DMSO:water (70:25:5), 50° C.): 9000 µg/mL
solubility at 2 days (IPA:DMSO:water (80:18:2), 23 °C, IPA:DMSO:water (80:18:2), 23° C.): 1000 µg/mL
solubility at 2 days (IPA:DMSO:water (80:18:2), 50 °C, IPA:DMSO:water (80:18:2), 50° C.): 6000 µg/mL
Solubility (IPAc, 23° C.): 0 mg solid/mL solvent
solubility at 2 days (IPAc, 50 °C, IPAc, 50° C.): 1000 µg/mL
Solubility (MEK:water (20:1), 23° C.): 0 mg solid/mL solvent
solubility at 2 days (MEK:water (20:1), 50 °C, MEK:water (20:1), 50° C.): 2000 µg/mL
solubility at 2 days (MeOAc:MeOH (1:1) and 1 vol % water, 23 °C, MeOAc:MeOH (1:1) and 1 vol % water, 23° C.): 118000 µg/mL
solubility at 2 days (MeOAc:MeOH (1:1) and 1 vol % water, 50 °C, MeOAc:MeOH (1:1) and 1 vol % water, 50° C.): 236000 µg/mL
solubility at 2 days (MeOAc:MeOH (1:1) and 2.5 vol % water, 23 °C, MeOAc:MeOH (1:1) and 2.5 vol % water, 23° C.): 39000 µg/mL
solubility at 2 days (MeOAc:MeOH (1:1) and 2.5 vol % water, 50 °C, MeOAc:MeOH (1:1) and 2.5 vol % water, 50° C.): 143000 µg/mL
solubility at 2 days (MeOAc:MeOH (1:1) and 5 vol % water, 23 °C, MeOAc:MeOH (1:1) and 5 vol % water, 23° C.): 5000 µg/mL
solubility at 2 days (MeOAc:MeOH (1:1) and 5 vol % water, 50 °C, MeOAc:MeOH (1:1) and 5 vol % water, 50° C.): 26000 µg/mL
solubility at 2 days (MeOAc:MeOH (1:1), 23 °C, MeOAc:MeOH (1:1), 23° C.): 208000 µg/mL
